Assay results: patent US20240393292A1, “ALLERGY ANTIGEN AND EPITOPE THEREOF” (HOYU CO., LTD., priority 2019, published 2024)

Test system: IgE antibodies from patients
Assay: Wheat epitope mapping (2): overlapping 10-amino-acid peptide fragments shifted by one amino acid
Type: binding, human
Settings: sequence without X; for Epitope sequence binding to IgE antibody, rank of the sequence (Key/Preferably/More preferably/Further preferably): serum of patient P2 (WDEIA)
Method: The peptides to be synthesized were shifted by one amino acid.
The library was prepared by the same procedure as described above in (A), and the presence or absence of binding of an IgE antibody present in the serum of a patient to each peptide fragment was measured by the same technique as described above. Numeric values determined from images obtained as a result of carrying out only the procedures (1) and (4) to (6) described above in the subsection titled (3) Spotting of cellulose-bound peptide solution were used as control values. The control value of each peptide was subtracted from numeric values determined from images obtained from results about the serum of patients, and the obtained value of the difference was compared with values of the peptides serving as the basis of overlapping.
Chemiluminescence intensity in images obtained by measurement was converted into a numeric value in the same manner as in (A). Numeric values determined from images obtained as a result of carrying out only the procedures (1) and (4) to (6) described above in the subsection titled (3) Spotting of cellulose-bound peptide solution (secondary antibody measurement values) were used as control values. The control value of each peptide was subtracted from numeric values determined from images obtained from results about the serum of patients. When values obtained using the sequences (SEQ ID NOs: 29, 131, 191, 281, 346, 414, 493, 562, 640, 706, 776, 899, 974, 1010, 1089, 1142, 1166, 1209, 1257, 1297, 1367, 1403, 1508, 1566, 1598, 1608, 1685, 1753, 1789, 1836, 1895, 1977, 2004, 2027, 2068, 2154, 2217, 2265, 2309, 2342, 2419, 2491, 2545, 2613, 2631, 2674, 2701, 2774, 2809 and 2830) serving as the basis of overlapping were defined as 100%, it was determined that: a peptide having a value of the difference that was less than 30% had no binding activity against IgE antibodies; a peptide having a value of the difference that was 30% or more and less than 50% had binding activity, albeit poor, against IgE antibodies; a peptide having a value of the difference that was 50% or more and less than 70% had binding activity, albeit somewhat poor, against IgE antibodies; and a peptide having a value of the difference that was 70% or more had equivalent or good binding activity against IgE antibodies and was thus a peptide had remaining binding activity against IgE antibodies.

## 1162 (SIDQNAQG; REGION 1..8: note = epitope) [compound 1162]
Serum of patient G7 (adult, general immediate type allergy to wheat)
  Epitope sequence binding to IgE antibody, rank of the sequence: Further preferably

## 1168 (PGQQQQFPPQ; REGION 1..10: note = epitope) [compound 1168]
Serum of patient P3 (WDEIA)
  Epitope sequence binding to IgE antibody, rank of the sequence: Preferably

## 1170 (FPPQQP; REGION 1..6: note = epitope) [compound 1170]
Serum of patient P3 (WDEIA)
  Epitope sequence binding to IgE antibody, rank of the sequence: Key

## 1173 (QQQQFPPQQP; REGION 1..10: note = epitope) [compound 1173]
Serum of patient P7 (WDEIA)
  Epitope sequence binding to IgE antibody, rank of the sequence: Preferably

## 1176 (QQFPPQQ; REGION 1..7: note = epitope) [compound 1176]
Serum of patient P8 (WDEIA)
  Epitope sequence binding to IgE antibody, rank of the sequence: Preferably

## 1177 (QQFPPQ; REGION 1..6: note = epitope) [compound 1177]
Serum of patient P8 (WDEIA)
  Epitope sequence binding to IgE antibody, rank of the sequence: Key

## 1179 (QQFPPQQ; REGION 1..7: note = epitope) [compound 1179]
Serum of patient P12 (WDEIA)
  Epitope sequence binding to IgE antibody, rank of the sequence: Preferably

## 1180 (QQFPP; REGION 1..5: note = epitope) [compound 1180]
Serum of patient P12 (WDEIA)
  Epitope sequence binding to IgE antibody, rank of the sequence: Key

## 1183 (QQFPPQQ; REGION 1..7: note = epitope) [compound 1183]
Serum of patient P14 (WDEIA)
  Epitope sequence binding to IgE antibody, rank of the sequence: Key

## 1185 (QQFPPQQP; REGION 1..8: note = epitope) [compound 1185]
Serum of patient P19 (WDEIA)
  Epitope sequence binding to IgE antibody, rank of the sequence: Key

## 1188 (QQFPPQQ; REGION 1..7: note = epitope) [compound 1188]
Serum of patient P21 (WDEIA)
  Epitope sequence binding to IgE antibody, rank of the sequence: Preferably

## 1189 (QQFPPQ; REGION 1..6: note = epitope) [compound 1189]
Serum of patient P21 (WDEIA)
  Epitope sequence binding to IgE antibody, rank of the sequence: Key

## 1190 (QQFPPQQPYP; REGION 1..10: note = epitope) [compound 1190]
Serum of patient P21 (WDEIA)
  Epitope sequence binding to IgE antibody, rank of the sequence: Key

## 1194 (QQQQFPPQ; REGION 1..8: note = epitope) [compound 1194]
Serum of patient P22 (WDEIA)
  Epitope sequence binding to IgE antibody, rank of the sequence: Key

## 1195 (QFPPQQPYPQ; REGION 1..10: note = epitope) [compound 1195]
Serum of patient P22 (WDEIA)
  Epitope sequence binding to IgE antibody, rank of the sequence: Key

## 1200 (QQFPGQQQQ; REGION 1..9: note = epitope) [compound 1200]
Serum of patient P28 (WDEIA)
  Epitope sequence binding to IgE antibody, rank of the sequence: Key

## 1206 (QQFPPQQP; REGION 1..8: note = epitope) [compound 1206]
Serum of patient P34 (WDEIA)
  Epitope sequence binding to IgE antibody, rank of the sequence: Preferably

## 1207 (FPPQQ; REGION 1..5: note = epitope) [compound 1207]
Serum of patient P34 (WDEIA)
  Epitope sequence binding to IgE antibody, rank of the sequence: Key

## 1208 (QQFPPQQ; REGION 1..7: note = epitope) [compound 1208]
Serum of patient P35 (WDEIA)
  Epitope sequence binding to IgE antibody, rank of the sequence: Key

## 1210 (PIQQQP; REGION 1..6: note = epitope) [compound 1210]
  Epitope sequence binding to IgE antibody, rank of the sequence (Key/Preferably/More preferably/Further preferably): Preferably

## 1213 (PIQQQPQPFP; REGION 1..10: note = epitope) [compound 1213]
Serum of patient P7 (WDEIA)
  Epitope sequence binding to IgE antibody, rank of the sequence: Preferably

## 1216 (PQQPP; REGION 1..5: note = epitope) [compound 1216]
Serum of patient P7 (WDEIA)
  Epitope sequence binding to IgE antibody, rank of the sequence: Preferably

## 1218 (PIQQQP; REGION 1..6: note = epitope) [compound 1218]
Serum of patient P9 (WDEIA)
  Epitope sequence binding to IgE antibody, rank of the sequence: Preferably

## 1220 (IQQQP; REGION 1..5: note = epitope) [compound 1220]
Serum of patient P9 (WDEIA)
  Epitope sequence binding to IgE antibody, rank of the sequence: Key

## 1221 (PIQQQPQPF; REGION 1..9: note = epitope) [compound 1221]
Serum of patient P10 (WDEIA)
  Epitope sequence binding to IgE antibody, rank of the sequence: Preferably

## 1223 (IQQQP; REGION 1..5: note = epitope) [compound 1223]
Serum of patient P10 (WDEIA)
  Epitope sequence binding to IgE antibody, rank of the sequence: Key

## 1225 (QQPIQQQP; REGION 1..8: note = epitope) [compound 1225]
Serum of patient P12 (WDEIA)
  Epitope sequence binding to IgE antibody, rank of the sequence: Preferably

## 1226 (PIQQQP; REGION 1..6: note = epitope) [compound 1226]
Serum of patient P12 (WDEIA)
  Epitope sequence binding to IgE antibody, rank of the sequence: Key

## 1227 (PQQPPC; REGION 1..6: note = epitope) [compound 1227]
Serum of patient P12 (WDEIA)
  Epitope sequence binding to IgE antibody, rank of the sequence: Key

## 1229 (PIQQQP; REGION 1..6: note = epitope) [compound 1229]
Serum of patient P13 (WDEIA)
  Epitope sequence binding to IgE antibody, rank of the sequence: Preferably

## 1231 (PQQPP; REGION 1..5: note = epitope) [compound 1231]
Serum of patient P13 (WDEIA)
  Epitope sequence binding to IgE antibody, rank of the sequence: Key

## 1234 (PQQPP; REGION 1..5: note = epitope) [compound 1234]
Serum of patient P14 (WDEIA)
  Epitope sequence binding to IgE antibody, rank of the sequence: Key

## 1235 (PQQPP; REGION 1..5: note = epitope) [compound 1235]
Serum of patient P17 (WDEIA)
  Epitope sequence binding to IgE antibody, rank of the sequence: Key

## 1236 (PQQPP; REGION 1..5: note = epitope) [compound 1236]
Serum of patient P21 (WDEIA)
  Epitope sequence binding to IgE antibody, rank of the sequence: Key

## 1239 (QQQPIQQQP; REGION 1..9: note = epitope) [compound 1239]
Serum of patient P24 (WDEIA)
  Epitope sequence binding to IgE antibody, rank of the sequence: Preferably

## 1241 (PIQQQP; REGION 1..6: note = epitope) [compound 1241]
Serum of patient P26 (WDEIA)
  Epitope sequence binding to IgE antibody, rank of the sequence: Key

## 1242 (PQQPPC; REGION 1..6: note = epitope) [compound 1242]
Serum of patient P26 (WDEIA)
  Epitope sequence binding to IgE antibody, rank of the sequence: Preferably

## 1243 (PQQPP; REGION 1..5: note = epitope) [compound 1243]
Serum of patient P26 (WDEIA)
  Epitope sequence binding to IgE antibody, rank of the sequence: Key

## 1244 (PIQQQP; REGION 1..6: note = epitope) [compound 1244]
Serum of patient P31 (WDEIA)
  Epitope sequence binding to IgE antibody, rank of the sequence: Key

## 1245 (PQQPPC; REGION 1..6: note = epitope) [compound 1245]
Serum of patient P31 (WDEIA)
  Epitope sequence binding to IgE antibody, rank of the sequence: Preferably

## 1246 (PQQPP; REGION 1..5: note = epitope) [compound 1246]
Serum of patient P31 (WDEIA)
  Epitope sequence binding to IgE antibody, rank of the sequence: Key

## 1247 (PIQQQP; REGION 1..6: note = epitope) [compound 1247]
Serum of patient P32 (WDEIA)
  Epitope sequence binding to IgE antibody, rank of the sequence: Key

## 1248 (PQQPP; REGION 1..5: note = epitope) [compound 1248]
Serum of patient P32 (WDEIA)
  Epitope sequence binding to IgE antibody, rank of the sequence: Key

## 1249 (QQPIQQQP; REGION 1..8: note = epitope) [compound 1249]
Serum of patient P33 (WDEIA)
  Epitope sequence binding to IgE antibody, rank of the sequence: Key

## 1250 (PQQPP; REGION 1..5: note = epitope) [compound 1250]
Serum of patient P33 (WDEIA)
  Epitope sequence binding to IgE antibody, rank of the sequence: Key

## 1252 (PQQPP; REGION 1..5: note = epitope) [compound 1252]
Serum of patient P35 (WDEIA)
  Epitope sequence binding to IgE antibody, rank of the sequence: Key

## 1253 (PIQQQPQPFP; REGION 1..10: note = epitope) [compound 1253]
Serum of patient P36 (WDEIA)
  Epitope sequence binding to IgE antibody, rank of the sequence: Preferably

## 1254 (PIQQQP; REGION 1..6: note = epitope) [compound 1254]
Serum of patient P36 (WDEIA)
  Epitope sequence binding to IgE antibody, rank of the sequence: Key

## 1255 (PQQPPC; REGION 1..6: note = epitope) [compound 1255]
Serum of patient P36 (WDEIA)
  Epitope sequence binding to IgE antibody, rank of the sequence: Preferably

## 1256 (PQQPP; REGION 1..5: note = epitope) [compound 1256]
Serum of patient P36 (WDEIA)
  Epitope sequence binding to IgE antibody, rank of the sequence: Key

## 1259 (LPRS; REGION 1..4: note = epitope) [compound 1259]
  Epitope sequence binding to IgE antibody, rank of the sequence (Key/Preferably/More preferably/Further preferably): Key

## 1269 (LPRS; REGION 1..4: note = epitope) [compound 1269]
Serum of patient P20 (WDEIA)
  Epitope sequence binding to IgE antibody, rank of the sequence: Key

## 1277 (LPRS; REGION 1..4: note = epitope) [compound 1277]
Serum of patient P29 (WDEIA)
  Epitope sequence binding to IgE antibody, rank of the sequence: Key

## 1282 (LPRS; REGION 1..4: note = epitope) [compound 1282]
Serum of patient P33 (WDEIA)
  Epitope sequence binding to IgE antibody, rank of the sequence: Key
